Measured values published in ChEMBL document CHEMBL1909046, “DrugMatrix in vitro pharmacology data”.

Experiments:
[1] = DRUGMATRIX: Platelet-Derived Growth Factor (PDGF) radioligand binding (ligand: [125I] PDGF); format: cell-based; settings: nih3t3; Not Active = under 50% inhibition at 10 µM
[2] = target: Mitogen-activated protein kinase 1 (Homo sapiens, UniProt P28482); experiment: DRUGMATRIX: Protein Serine/Threonine Kinase, ERK2 enzyme inhibition (substrate: Myelin Basic Protein); design: species or system Escherichia coli; settings: Not Active = under 50% inhibition at 10 µM
Chain of Mitogen-activated protein kinase 1 (P28482 whole entry): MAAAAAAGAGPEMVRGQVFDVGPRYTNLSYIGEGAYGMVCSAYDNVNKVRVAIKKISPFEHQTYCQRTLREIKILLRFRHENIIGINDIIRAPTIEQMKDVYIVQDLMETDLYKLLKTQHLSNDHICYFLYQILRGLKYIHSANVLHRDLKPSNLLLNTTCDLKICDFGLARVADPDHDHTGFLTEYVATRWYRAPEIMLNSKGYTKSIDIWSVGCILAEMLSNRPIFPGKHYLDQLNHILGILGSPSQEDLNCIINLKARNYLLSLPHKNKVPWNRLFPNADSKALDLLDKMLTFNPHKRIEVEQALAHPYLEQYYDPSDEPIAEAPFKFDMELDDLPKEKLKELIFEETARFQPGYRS

[3] = target: Delta-type opioid receptor (Homo sapiens, UniProt P41143); format: cell membranes, HEK293, Membrane; settings: hek293; also: in other assays of this panel Not Active means under 50% inhibition at 10 µM
Chain of Delta-type opioid receptor (P41143 whole entry): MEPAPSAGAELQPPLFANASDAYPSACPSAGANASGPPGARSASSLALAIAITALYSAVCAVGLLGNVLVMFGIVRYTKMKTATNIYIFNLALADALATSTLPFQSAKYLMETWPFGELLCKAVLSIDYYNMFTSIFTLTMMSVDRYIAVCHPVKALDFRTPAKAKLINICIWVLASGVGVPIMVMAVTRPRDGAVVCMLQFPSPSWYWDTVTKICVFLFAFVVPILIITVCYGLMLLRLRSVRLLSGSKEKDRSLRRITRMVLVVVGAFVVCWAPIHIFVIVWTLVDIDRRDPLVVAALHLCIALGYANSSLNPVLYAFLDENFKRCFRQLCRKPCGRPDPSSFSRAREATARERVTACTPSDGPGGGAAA

Endothelin-1 receptor = target: T1, Endothelin-1 receptor (Homo sapiens, UniProt P25101); format: cell membranes, CHO-K1, Membrane; settings: cho-k1; also: in other assays of this panel Not Active means under 50% inhibition at 10 µM
T1 sequence (P25101 whole entry): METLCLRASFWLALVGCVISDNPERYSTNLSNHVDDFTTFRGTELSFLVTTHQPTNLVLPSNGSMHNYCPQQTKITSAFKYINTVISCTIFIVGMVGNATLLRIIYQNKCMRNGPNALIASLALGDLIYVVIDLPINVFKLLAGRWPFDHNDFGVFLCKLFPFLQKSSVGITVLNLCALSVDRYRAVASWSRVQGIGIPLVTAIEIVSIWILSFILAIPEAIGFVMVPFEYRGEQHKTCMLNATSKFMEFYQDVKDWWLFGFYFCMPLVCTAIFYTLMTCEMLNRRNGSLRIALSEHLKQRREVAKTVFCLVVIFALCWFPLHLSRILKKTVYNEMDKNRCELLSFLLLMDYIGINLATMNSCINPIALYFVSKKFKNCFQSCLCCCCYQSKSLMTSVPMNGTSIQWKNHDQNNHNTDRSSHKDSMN

[4] = target: T2, 3-hydroxy-3-methylglutaryl-coenzyme A reductase (Homo sapiens, UniProt P04035); design: species or system Escherichia coli;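 also: enzyme inhibition assay of HMG-CoA reductase using radiolabeled [14C]HMG-CoA as substrate; in other assays of this panel Not Active means under 50% inhibition at 10 µM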
T2 sequence (P04035 whole entry): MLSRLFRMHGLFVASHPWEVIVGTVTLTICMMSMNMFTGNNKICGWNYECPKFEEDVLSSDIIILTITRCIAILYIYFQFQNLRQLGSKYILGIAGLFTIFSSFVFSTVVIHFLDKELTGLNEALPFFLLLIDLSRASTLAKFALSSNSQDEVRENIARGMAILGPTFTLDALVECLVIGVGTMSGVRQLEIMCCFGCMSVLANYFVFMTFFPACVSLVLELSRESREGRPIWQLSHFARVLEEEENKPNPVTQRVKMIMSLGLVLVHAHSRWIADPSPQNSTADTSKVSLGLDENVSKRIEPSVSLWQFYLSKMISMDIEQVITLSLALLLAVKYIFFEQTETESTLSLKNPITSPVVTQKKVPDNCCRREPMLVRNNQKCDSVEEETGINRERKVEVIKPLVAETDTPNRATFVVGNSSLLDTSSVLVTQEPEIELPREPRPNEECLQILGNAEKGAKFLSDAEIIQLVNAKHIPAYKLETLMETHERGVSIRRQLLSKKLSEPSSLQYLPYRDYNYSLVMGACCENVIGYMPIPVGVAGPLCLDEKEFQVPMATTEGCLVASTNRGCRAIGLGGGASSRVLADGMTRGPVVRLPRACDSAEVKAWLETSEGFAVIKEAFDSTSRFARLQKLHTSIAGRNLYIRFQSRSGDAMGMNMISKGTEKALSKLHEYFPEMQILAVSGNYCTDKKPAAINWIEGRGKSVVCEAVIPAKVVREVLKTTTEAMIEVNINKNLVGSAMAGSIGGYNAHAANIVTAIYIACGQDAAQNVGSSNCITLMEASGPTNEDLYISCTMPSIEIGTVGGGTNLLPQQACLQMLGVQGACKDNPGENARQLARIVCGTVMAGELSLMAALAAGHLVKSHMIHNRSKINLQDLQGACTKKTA

Carbonic anhydrase 2 = Carbonic anhydrase 2 (Homo sapiens, UniProt P00918); experiment: DRUGMATRIX: Carbonic Anhydrase II enzyme inhibition (substrate: 4-Nitrophenyl acetate (4-NPA)); format: tissue-based, Erythrocyte; settings: erythrocyte; Not Active = under 50% inhibition at 10 µM
Cytochrome P450 1A2 = target: T3, Cytochrome P450 1A2 (Homo sapiens, UniProt P05177); settings: bti-tn-5b1-4; also: in other assays of this panel Not Active means under 50% inhibition at 10 µM
T3 sequence (P05177 whole entry): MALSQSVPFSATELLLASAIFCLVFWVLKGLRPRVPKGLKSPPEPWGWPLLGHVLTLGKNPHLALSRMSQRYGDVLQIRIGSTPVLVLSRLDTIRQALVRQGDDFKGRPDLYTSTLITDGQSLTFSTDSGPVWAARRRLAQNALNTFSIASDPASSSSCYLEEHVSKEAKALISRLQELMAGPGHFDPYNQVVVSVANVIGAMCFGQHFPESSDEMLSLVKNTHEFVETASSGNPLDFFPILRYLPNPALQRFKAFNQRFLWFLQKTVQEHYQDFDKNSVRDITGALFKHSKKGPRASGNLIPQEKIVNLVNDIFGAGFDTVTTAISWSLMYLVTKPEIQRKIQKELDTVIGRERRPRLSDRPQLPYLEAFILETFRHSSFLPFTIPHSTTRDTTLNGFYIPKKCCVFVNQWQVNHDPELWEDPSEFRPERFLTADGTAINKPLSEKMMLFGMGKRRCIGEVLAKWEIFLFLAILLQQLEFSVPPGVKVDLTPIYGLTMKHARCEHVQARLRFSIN

Cannabinoid receptor 1 = Cannabinoid receptor 1 (Homo sapiens, UniProt P21554); format: cell membranes, Membrane; settings: chem-1; also: in other assays of this panel Not Active means under 50% inhibition at 10 µM
Chain of Cannabinoid receptor 1 (P21554 whole entry): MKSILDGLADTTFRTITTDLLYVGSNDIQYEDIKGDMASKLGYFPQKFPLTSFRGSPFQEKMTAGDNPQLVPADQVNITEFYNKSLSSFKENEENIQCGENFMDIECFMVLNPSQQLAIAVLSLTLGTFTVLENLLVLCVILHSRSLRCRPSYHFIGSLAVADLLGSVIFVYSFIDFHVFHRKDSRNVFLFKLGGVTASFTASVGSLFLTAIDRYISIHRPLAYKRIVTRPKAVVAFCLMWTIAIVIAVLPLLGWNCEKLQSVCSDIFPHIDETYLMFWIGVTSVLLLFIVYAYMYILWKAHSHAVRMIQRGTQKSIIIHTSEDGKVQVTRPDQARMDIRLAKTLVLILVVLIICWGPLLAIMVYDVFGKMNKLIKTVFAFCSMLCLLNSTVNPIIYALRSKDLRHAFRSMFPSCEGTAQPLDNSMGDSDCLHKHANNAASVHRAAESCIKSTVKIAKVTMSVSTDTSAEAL

| Structure (SMILES) | IC50 [1] | Ki [1] | IC50 [2] | IC50 [3] | IC50 (Endothelin-1 receptor) | IC50 [4] | IC50 (Carbonic anhydrase 2) | IC50 (Cytochrome P450 1A2) | Ki (Cytochrome P450 1A2) | IC50 (Cannabinoid receptor 1) | IC50 ([2]; read-out: IC50) |
| --- | --- | --- | --- | --- | --- | --- | --- | --- | --- | --- | --- |
| COc1cc2c3cc1Oc1cc(ccc1O)C[C@@H]1c4c(cc(OC)c(O)c4Oc4ccc(cc4)C[C@@H]3N(C)CC2)CC[N+]1(C)C.[Cl-] | Not Active | Not Active | Not Active | Not Active | Not Active | Not Active | Not Active | Not Active | Not Active | Not Active | – |
| O=C1CC[C@@H](N2C(=O)c3ccccc3C2=O)C(=O)N1 | Not Active | Not Active | Not Active | Not Active | Not Active | Not Active | Not Active | Not Active | Not Active | Not Active | – |
| CN(C)c1nc(N(C)C)nc(N(C)C)n1 [ALTRETAMINE] | Not Active | Not Active | Not Active | Not Active | Not Active | Not Active | Not Active | – | – | Not Active | – |
| CNCCc1ccccn1 [BETAHISTINE] | Not Active | Not Active | Not Active | Not Active | Not Active | Not Active | Not Active | Not Active | Not Active | Not Active | – |
| CCCC1O[C@@H]2C[C@H]3[C@@H]4CCC5=CC(=O)C=C[C@]5(C)[C@H]4[C@@H](O)C[C@]3(C)[C@]2(C(=O)CO)O1 (some centres undefined) [BUDESONIDE] | Not Active | Not Active | Not Active | Not Active | Not Active | Not Active | Not Active | Not Active | Not Active | Not Active | – |
| CC(NC(C)(C)C)C(=O)c1cccc(Cl)c1 (centres undefined) [BUPROPION] | Not Active | Not Active | Not Active | Not Active | Not Active | Not Active | Not Active | Not Active | Not Active | Not Active | – |
| C[C@H](CS)C(=O)N1CCC[C@H]1C(=O)O [CAPTOPRIL] | Not Active | Not Active | Not Active | Not Active | Not Active | Not Active | Not Active | Not Active | Not Active | Not Active | – |
| CN(C)CCCN1c2ccccc2Sc2ccc(Cl)cc21 [CHLORPROMAZINE] | Not Active | Not Active | Not Active | – | Not Active | Not Active | Not Active | – | – | Not Active | – |
| CC(C)(C)NCC(O)c1cc(Cl)c(N)c(Cl)c1 (centres undefined) [CLENBUTEROL] | Not Active | Not Active | Not Active | Not Active | Not Active | Not Active | Not Active | Not Active | Not Active | Not Active | – |
| CC(C)(Oc1ccc(Cl)cc1)C(=O)O [CLOFIBRIC ACID] | Not Active | Not Active | Not Active | Not Active | Not Active | Not Active | Not Active | – | – | Not Active | – |
| Clc1cccc(Cl)c1NC1=NCCN1 [CLONIDINE] | Not Active | Not Active | Not Active | Not Active | Not Active | Not Active | Not Active | Not Active | Not Active | Not Active | – |
| O=c1oc2ccccc2c(O)c1Cc1c(O)c2ccccc2oc1=O [DICUMAROL] | Not Active | Not Active | – | Not Active | Not Active | Not Active | Not Active | Not Active | Not Active | Not Active | 4.43 µM |
| C[C@H]1O[C@@H](O[C@H]2[C@@H](O)C[C@H](O[C@H]3[C@@H](O)C[C@H](O[C@H]4CC[C@@]5(C)[C@H](CC[C@@H]6[C@@H]5C[C@@H](O)[C@]5(C)[C@@H](C7=CC(=O)OC7)CC[C@]65O)C4)O[C@@H]3C)O[C@@H]2C)C[C@H](O)[C@@H]1O [DIGOXIN] | Not Active | Not Active | Not Active | Not Active | Not Active | Not Active | Not Active | Not Active | Not Active | Not Active | – |
| CC(=O)O[C@@]12CO[C@@H]1C[C@H](O)[C@@]1(C)C(=O)[C@H](O)C3=C(C)[C@@H](OC(=O)[C@H](O)[C@@H](NC(=O)OC(C)(C)C)c4ccccc4)C[C@@](O)([C@@H](OC(=O)c4ccccc4)[C@H]21)C3(C)C.O.O.O [DOCETAXEL] | Not Active | Not Active | Not Active | Not Active | Not Active | Not Active | Not Active | Not Active | Not Active | Not Active | – |
| COc1cc2nc(N3CCN(C(=O)C4COc5ccccc5O4)CC3)nc(N)c2cc1OC (centres undefined) [DOXAZOSIN] | Not Active | Not Active | Not Active | Not Active | Not Active | Not Active | Not Active | Not Active | Not Active | Not Active | – |
| C[C@H]1c2cccc(O)c2C(=O)C2=C(O)[C@]3(O)C(=O)C(C(N)=O)=C(O)[C@@H](N(C)C)[C@@H]3[C@@H](O)[C@@H]21.O [DOXYCYCLINE] | Not Active | Not Active | Not Active | Not Active | Not Active | Not Active | Not Active | Not Active | Not Active | Not Active | – |
| C[C@]12CC[C@@H]3c4ccc(O)cc4CC[C@H]3[C@@H]1CCC2=O [ESTRONE] | Not Active | Not Active | Not Active | Not Active | Not Active | Not Active | Not Active | – | – | Not Active | – |
| O=c1[nH]c(=O)n([C@H]2C[C@H](O)[C@@H](CO)O2)cc1I [IDOXURIDINE] | Not Active | Not Active | Not Active | Not Active | Not Active | Not Active | Not Active | Not Active | Not Active | Not Active | – |
| CN(C)CCCN1c2ccccc2Sc2ccccc21 [PROMAZINE] | Not Active | Not Active | Not Active | Not Active | Not Active | Not Active | Not Active | – | – | Not Active | – |
